According to US20120237552A1, “Peptoid Agonists of Nerve Growth Factor and Their Use as Medicaments” (priority 2009, published 2012):
Entries after “also recorded” stand apart in the source; their conditions may differ.

Key:
[1] = tested on: C57BL/6 EAE mice; experiment: Experimental autoimmune encephalomyelitis (EAE) clinical score; assay type: in vivo; details: daily intraperitoneal
Procedure: Trials were approved by the Parc Cientific de Barcelona Committee on Animal Care. Female C57BL/6 mice from Harlan (8-12 weeks old) were immunized subcutaneously in both hind pads with 300 μg of myelin oligodendrocyte glycoprotein (MOG) peptide 35-55 (Spikem, Firenze) emulsified with 50 μg of Mycobacterium tuberculosis (H37Ra strain; Difco, Detroit, Mich.) in incomplete Freund's adjuvant (IFA) as previously described (Adams et al. 2007). Mice were intraperitoneally injected with Pertussis toxin (Sigma)(500 ng) at the time of immunization and 2 days later. Animals were weighted and inspected for clinical signs of disease on a daily basis by a blinded observer. Disease severity of EAE was assessed according to the following scale: 0=normal; 0.5=mild limp tail; 1=limp tail; 2=mild parapesis of the hind limbs, unsteady gait; 3=moderate parapesis, voluntary movements still possible; 4=paraplegia or tetraparesis; 5=moribund state. Data shown for the clinical studies are representative of two independent experiments performed with the indicated number of animals (Moreno et al., 2006).
(§1) The agonist molecules selected for the animal studies, N35-4-8C, N6-4-17C and N35-4-17C, were prepared in water with 5% DMSO. Animals were treated with the agonist molecule (25, 50 and 100 mg/kg) or placebo (water+5% DMSO) through daily intraperitoneal injection starting after immunization. At the end of the study, mice were anesthetized and perfused intracardially with 4% of paraformaldehyde in 0.1M phosphate buffer (pH 7.6). Brains, spinal cords and spleens were dissected and either fixed or frozen until use. Serum was obtained from all animals included in the study, and transaminases levels were measured.
In order to evaluate the effects of the NGF-like peptoids “in vivo”, we studied the effect of the NGF-mimetic peptoids in the animal model of MS. C57BL/6 mice immunized with MOG35-55 peptide were treated daily with N35-4-8C, N6-4-17C and N35-4-17C intraperitoneally from day 0 to day 25 at a different concentrations of the compound. N35-4-8C was tested at 3 different concentrations selected in base to previous experiments using agonist molecules in animal models: 25 mg/kg, 50 mg/kg and 100 mg/kg. […] N35-4-17C was also tested at the same concentrations. […] Moreover, the treatment had higher clinical scores with a clear worsening in the progression of the disease (FIG. 4C).

[2] = Serum transaminases levels in treated EAE mice; assay type: in vivo; details: daily intraperitoneal treatment, N35-4-17C at the higher concentrations
Procedure: as §1

[3] = tested on: RN22 cells; experiment: RN22 cell survival under CuSO4 stress (MTT); assay type: cell-based, rat; details: CuSO4 150 μM, 24 h, peptoids 1 ng/ml-10 μg/ml; compared with NGF 100 ng/ml
Procedure: The library was also tested to assess their capacity to promote cell survival of myelin producing cells. To delineate p75 signalling independent of TrkA, we used a rat schwannoma cell line (RN22) expressing p75, but not TrkA, (Gentry et al., 2000).
The rat schawnnoma cell line RN22 was cultured in 5% CO2 at 37° C. in Dulbecco's modified Eagle's medium (DMEM) with 10% fetal bovine serum (FBS) and penicillin/streptomycin.
RN22 cells were plated at 20,000 cells/well on a 24-well plate in DMEM alone and after allowing the cells to adhere for 3 days, cupper sulphate (CuSO4) (150 μM) was added with or without NGF (100 ng/ml) or the peptoids N35-4-8C, N6-4-17C and N35-4-17C at different concentrations (1 ng/ml-10 μg/ml) to generate stress and cell death. After 24 h cell viability was studied by determining the amount of yellow MTT (Sigma) that was reduced to insoluble purple formazan. After removing the medium, the water-insoluble formazan was solubilised with DMSO (Sigma), and the dissolved material was measured spectrophotometrically at a wavelength of 570 nm, subtracting the background at 650 nm (Frade, 2005).

[4] = tested on: PC12 cells; experiment: PC12 cell differentiation (neurite outgrowth); assay type: cell-based, rat; details: 3 days, peptoids 2 ng/ml to 50 μg/ml, reduced serum (0.5% FBS and 1% HS); compared with NGF 100 ng/ml
Procedure: PC 12 cell differentiation was measured by plating cells onto collagen-coated 24-wells plates. NGF (100 ng/ml) or the small chemicals at different concentrations were added and the percentage of cells with neurite processes greater than two cell bodies in length were counted after relevant treatment. For each experiment at least 300 cells were randomly measured (Burstein and Greene, 1978).
PC12 cells were maintained at 37° C. in DMEM supplemented with 2.5% FBS, 15% of Horse serum (HS) and penicillin/streptomycin in a humidified 5% CO2 incubator. The cells were grown on 60- and 100-mm tissue culture dishes (Becton Dickinson).
PC 12 cells were cultured for 3 days in the presence of the peptoids (from 2 ng/ml to 50 μg/ml) under reduced serum conditions (0.5% FBS and 1% HS).

[5] = tested on: IκBα; experiment: IκBα phosphorylation / NF-κB pathway activation in PC12 and RN22 cells (western blot); assay type: cell-based, rat; details: 100 ng/ml
Procedure: (§2) Western Blot Analysis. Subconfluent cells were grown overnight in medium containing 2% FBS and 1% HS and stimulated with 100 ng/ml NGF or the NGF-like small chemicals for the indicated time points. Cells were then washed with cold phosphate-buffered saline (PBS) and briefly sonicated in SDS sample buffer (containing β-mercaptoethanol and 2 mM PMSF). Lysates (200 μg of total proteins) were separated on SDS-PAGE, and transferred to nitrocellulose (Whatman, Dassel, Germany). After blocking with 5% nonfat milk in TBST buffer (10 mM Tris pH 7.5; 150 mM NaCl/0.2% Tween 20), blots were probed overnight at 4° C. with anti-p-TrkA (Tyr 490) antibody (1:1000), anti TrkA antibody (1:1000), anti-p-IκBα (Ser 32/36)(5A5) mouse antibody (1/1000), anti IκBα (L35A5) mouse antibody (1:1000), anti-p-SAPK/JNK (Thr183/Tyr185) antibody (1:1000) or anti-SAPK/JNK antibody (1/1000)(all of them from Cell Signaling), followed by incubation with HRP-conjugated IgG (Jackson ImmunoResearch) for 1 h at room temperature (RT). Detection of phosphorylated species was performed by using the enhanced chemiluminescence (ECL) system (GE Healthcare Bio-Sciences, Piscataway, N.J.).
To investigate whether our NGF-like small chemicals activate p75 we analyzed the activation of the NF-κB pathway (Bonizzi G, Karin M. 2004) and the SAPK/JNK pathway (cell death) in PC12 and RN22 cell lines. […]

[6] = target: T1, TrkA (Rattus norvegicus, UniProt P35739); experiment: TrkA phosphorylation in PC12 cells (western blot); assay type: cell-based; details: 100 ng/ml, time course
T1 construct: we analyzed their capacity to induce TrkA phosphorylation in PC12 cells; endogenous in cells; host or cells: PC12 cells
T1 sequence (P35739 33-799): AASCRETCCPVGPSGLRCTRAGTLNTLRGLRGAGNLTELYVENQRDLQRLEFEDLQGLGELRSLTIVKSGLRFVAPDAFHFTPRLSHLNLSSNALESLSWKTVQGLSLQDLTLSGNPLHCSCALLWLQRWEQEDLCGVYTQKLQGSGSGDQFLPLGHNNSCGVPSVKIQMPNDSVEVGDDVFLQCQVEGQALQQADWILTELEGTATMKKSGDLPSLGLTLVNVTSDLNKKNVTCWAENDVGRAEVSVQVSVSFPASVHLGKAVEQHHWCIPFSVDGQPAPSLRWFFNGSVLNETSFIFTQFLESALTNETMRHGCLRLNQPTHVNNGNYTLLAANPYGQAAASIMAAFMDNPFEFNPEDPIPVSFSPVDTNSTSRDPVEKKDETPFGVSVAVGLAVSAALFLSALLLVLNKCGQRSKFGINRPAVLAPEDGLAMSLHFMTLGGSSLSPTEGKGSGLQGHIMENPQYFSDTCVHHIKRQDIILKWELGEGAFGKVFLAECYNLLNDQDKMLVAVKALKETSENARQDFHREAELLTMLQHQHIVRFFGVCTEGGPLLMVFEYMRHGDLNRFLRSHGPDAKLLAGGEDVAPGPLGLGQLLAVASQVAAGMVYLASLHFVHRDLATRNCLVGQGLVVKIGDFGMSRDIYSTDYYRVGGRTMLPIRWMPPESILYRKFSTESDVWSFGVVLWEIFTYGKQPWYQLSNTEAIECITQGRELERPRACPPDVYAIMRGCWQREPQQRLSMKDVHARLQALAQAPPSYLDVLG
Procedure: Activation of TrkA is the first event in the signalling cascade leading to differentiation and survival of NGF responsive neurons and PC12 cells (Greene and Tischler, 1976; Chao, 2003; Huang and Reichardt, 2003). To evaluate whether the neurotrophic activity of NGF-like peptoids was mediated by the interaction with TrkA receptor, we analyzed their capacity to induce TrkA phosphorylation in PC12 cells. The activity of peptoids was tested in the range of concentrations that were effective on PC12 cells differentiation.
Western Blot Analysis. Subconfluent cells were grown overnight in medium containing 2% FBS and 1% HS and stimulated with 100 ng/ml NGF or the NGF-like small chemicals for the indicated time points. Cells were then washed with cold phosphate-buffered saline (PBS) and briefly sonicated in SDS sample buffer (containing β-mercaptoethanol and 2 mM PMSF). Lysates (200 μg of total proteins) were separated on SDS-PAGE, and transferred to nitrocellulose (Whatman, Dassel, Germany). […]

[7] = tested on: SAPK/JNK; experiment: SAPK/JNK phosphorylation in RN22 cells (western blot); assay type: cell-based, rat; details: 100 ng/ml
Procedure: as §2
In several neuronal systems, JNK activation has been causally linked with the induction of programmed cell death (Bhakar et al., 2003). […]

Molecule | EAE clinical severity ([1]; any of the concentrations tested (25, 50, 100 mg/kg), 26 days observation) | transaminases levels in serum [2] | survival of RN22 cells (cell viability, MTT) [3] | differentiation of PC12 cells [4] | EAE clinical severity ([1]; 25 mg/kg, day 0 to day 25) | EAE clinical symptoms ([1]; higher concentrations (50 and 100 mg/kg)) | time after addition at which p-IκBα levels were increased [5] [min] | time of maximal TrkA phosphorylation [6] [min] | activation of the JNK pathway (phosphorylation of SAPK/JNK) [7]
CC(C)CCN(CC(=O)N(CCc1ccc(S(N)(=O)=O)cc1)CC(N)=O)C(=O)CNCCN1CCCC1 [N6-4-17C, [N-(2-(1-Pyrrolidinyl)ethyl)glycyl]-[N-(3-methylbutyl)glycyl]-N-[2-(4′-sulfamoylphenyl)ethyl]glycinamide] | not effective in reducing the clinical severity of EAE; also recorded: no effects in EAE | elevated transaminases levels | promote survival of RN22 cells | induce the differentiation of PC12 cells at different concentrations to an extent substantially comparable with that induce by NGF |  |  |  |  | 
CC(C)CCN(CC(=O)N(CCc1ccc(S(N)(=O)=O)cc1)CC(N)=O)C(=O)CNCCc1ccccc1F [N35-4-17C, [N-(2-(2′-Fluorophenyl)ethyl)glycyl]-[N-(3-methylbutyl)glycyl]-N-[2-(4′-sulfamoylphenyl)ethyl]glycinamide] |  | elevated transaminase levels | promote survival of RN22 cells | induce the differentiation of PC12 cells at different concentrations to an extent substantially comparable with that induce by NGF | prevents significantly the development of clinical symptoms in EAE | toxic effect worsening the development of the clinical symptoms |  |  | 
NGF: homodimeric protein from the neurotrophin family; used as positive control at 100 ng/ml |  |  |  |  |  |  | ≤ 5 | 30 | obvious
